Test results reported in patent US9145424B2, “Treatment of amyotrophic lateral sclerosis” (Northwestern University, priority 2008, dated 2015).
Values after ≈ are worked out from the molar mass of the structure shown. Values joined by “and” are separate entries in the source; they are usually repeats but may differ in a detail not shown here. Equal values may be shown once. Read-outs that look alike come from different tables or passages of the source.

What was measured:
[1] = Metabolic half-life in rats; type: in vitro ADME; settings: rat
Source text: (§1) CMB-087229 was sent for an evaluation of its in vitro ADME properties.

[2] = In vitro Caco-2 permeability; type: in vitro ADME; settings: human, Caco-2
[3] = In vitro microsomal stability, human; type: in vitro ADME; settings: human, human liver microsomes; read-out: human metabolic potential T1/2
Description: (§2) Metabolism (microsome, S9 fraction, CYP450): Liver Cytochrome P450 (CYP450) enzymes are the major route for xenobiotic metabolism and microsomal and hepatocyte stability is the best predictor of pharmacokinetic half-life. Cross-species comparisons of metabolism in liver microsomes can predict potential issues with liver toxicity in humans. Selected active compounds are tested in liver microsomes from efficacy species (mouse), toxicity species (rat, dog, monkey), and humans for metabolic stability.
as §1
(§3) Two possible amines, secondary and tertiary AAP analogues, were initially screened in the protection assay (FIG. 30) and for in vitro microsomal stability (Table 1) and Caco-2 permeability (Table 2). […] The solubilities of 2 and 3 were good in aqueous media (≧150 μM), and no precipitation occurred at the highest concentration. The in vitro plasma half-life for both compounds was >60 min.

[4] = system: G93A SOD1 ALS mice; experiment: Survival in the G93A SOD1 ALS mouse model; type: in vivo; settings: 20 mg/kg
Description: The compounds identified were evaluated in the transgenic G93A ALS mouse model. ADME data was used to determine optimal route of administration. LD50 and maximally-tolerated dose were determined, and that information was used to design and execute pharmacokinetic studies to assess brain bioavailability, and to guide choice of dosing regimen (i.e., frequency, dose, route). […] This may include further dose optimization, phenotype assessment, comparison with compounds of established efficacy, and analysis of brain tissue in treated animals.
In the present study, G93A SOD1 mice and littermate controls were bred from existing colonies at the Bedford VA Medical Hospital. The male G93A SOD1 mice were mated with B6SJL females and the offspring were genotyped by PCR using tail DNA. […] Mice were housed in micro-isolator cages in complete barrier facilities. A 12 hour light-dark cycle was maintained and animals were given free access to food and water. Control and transgenic mice of the same age (±2 days) and from the same ‘f’ generation were selected from multiple litters to form experimental cohorts (n=20 per group). […]
Data sets are generated and analyzed for each clinical and neuropathological measure. […] Dose-dependent effects are assessed in each treatment group using multiple two-sided ANOVA tests. […]

[5] = In vitro microsomal stability, mouse; type: in vitro ADME; settings: mouse, mouse liver microsomes; read-out: mouse metabolic potential T1/2
Description: as §2, §1, §3

[6] = In vitro plasma stability; type: in vitro ADME; settings: plasma; read-out: plasma stability T1/2
Description: Plasma stability: Plasma stability of active compounds is assessed in efficacy species (mouse), toxicity species (rat, dog, monkey), and human cells.

[7] = Brain uptake procedure, LCMS of brain and plasma; type: in vivo, mice (Tg6799 colony with B6/SJL background); settings: 1 mg/kg i.p.; for concentration at 10 min / Kp at 10 min: Tg6799 colony with B6/SJL background, mouse, intraperitoneal, 1 mg/kg; for Kp at 10 min: brain/plasma
Description: CMB-087229 Mice Brain and Plasma Data CMB-087229 (1 mg/kg) was administrated to mice (Tg6799 colony with B6/SJL background) by intraperitoneal injection in a 60% PBS and 40% dimethyl sulfoxide solution. At 10 minutes after compound administration the mice were sacrificed. Blood was harvested and plasma was transferred to flash freeze in liquid nitrogen after centrifugation. Mice were perfused. The brain was homogenized in 100% acetonitrile. CMB-003319 (0.5 μg, 1.73 nmol) was added as an internal standard. The homogenates were centrifuged at 12000×g for 12 min, and the supernatant was evaporated. The residue was reconstituted in 33.3% acetonitrile. Solid phase extraction followed by LCMS (API 300 liquid chromatography-tandem mass spectrometry system, Applied Biosystems, Foster City, Calif.; Agilent 1100 series HPLC system, Agilent Technologies, Wilmington, Del.) was used to quantify the amount of CMB-087229 in mouse brain. Solid-phase extraction cartridges (Sep-Pak C18, Water Associates, Milford, Mass.) were washed with 1 mL acetonitrile and equilibrated with 1 mL of water. The reconstituted supernatant was then loaded, washed with 1 mL×2 of 33.3% acetonitrile. CMB-087229 was then dried and submitted for LCMS.

[8] = system: PC12 cells that express mutant G93A SOD1; experiment: Mutant SOD1-induced cytotoxicity protection assay
Description: This idea was tested by examining the sensitivity of PC12 cells to SOD1 aggregates in the presence and absence of proteasome inhibitor MG132. PC12 cells expressing no SOD1, wild type SOD1, G85R SOD1 or G93A SOD1 were grown with or without MG132 (FIG. 1).
PC12 cells expressing G93A SOD1 were treated with 100 nM MG132 with or without co-treatment with geldanamycin or radicicol.

[9] = in vivo; settings: mouse
[10] = Aqueous solubility; type: physicochemical
Description: Solubility: Because compounds are stored in DMSO, it is necessary to determine aqueous solubility of initial hit compounds and their analogs. High solubility in aqueous solution is necessary for high GI absorption, bioavailability, and for chemical formulation. Compounds should be soluble in aqueous solution at >10 μg/ml. Solubility of >50 μg/ml is preferred.

Which results are given for `O=c1cc(COc2cc(Cl)cc(Cl)c2)[nH][nH]1` [CMB-087229]?
half-life [1]: ~120 min; Papp (A→B) [2]: 37 ×10⁻⁶ cm/s; half-life [3]: 93 min; extension in survival [4]: 13.4%; half-life [5]: 36 min; half-life [6]: 17 min; Brain Extract concentration ([7]; 10 minutes, single mice): 0.159 µg/mL and 0.187 µg/mL; Brain concentration ([7]; 10 minutes, single mice): 0.366 µg/g and 0.467 µg/g; Brain/plasma Ratio July ([7]; 10 minutes, single mice): 4.10 and 3.13; Plasma concentration July ([7]; 10 minutes, single mice): 0.0892 µg/mL and 0.149 µg/mL; concentration at 10 min ([7]; brain extract, 10 minutes, single mice, read-out: Brain Extract concentration): 121 ng/mL; concentration at 10 min ([7]; brain, 10 min July, read-out: Brain concentration (Mean ± S.E.)): 363 ± 105 ng/g; concentration at 10 min ([7]; brain, 10 minutes, single mice, read-out: Brain concentration): 257 ng/g; Kp at 10 min ([7]; 10 min July, read-out: Brain/Plasma Ratio (Mean ± S.E.)): 3.36 ± 0.66; Kp at 10 min ([7]; 10 minutes, single mice, read-out: Brain/plasma Ratio July): 2.84; concentration at 10 min ([7]; plasma, 10 min July, read-out: Plasma concentration (Mean ± S.E.)): 110 ± 34.2 ng/mL; concentration at 10 min ([7]; plasma, 10 minutes, single mice, read-out: Plasma concentration July): 90.4 ng/mL; potency (ED50) [8]: 74 nM; Kp [9]: ~0.55; concentration at 4 h ([9]; concentration in the brain): 194 µM; concentration at 3 h ([9]; plasma concentration): 342 µM; concentration at 6 h ([9]; plasma concentration): 347 µM; concentration at 12 h ([9]; plasma concentration): 248 µM; concentration at 24 h ([9]; plasma concentration): 1680 nM; aqueous solubility [10]: 250 µM (≈ 64.8 µg/mL)
